Reference: ChEMBL document CHEMBL1133869, “Synthesis and biological activity of L-tyrosine-based PPARgamma agonists with reduced molecular weight” (Bioorg Med Chem Lett, 2001)
pEC50, pKi: −log10 of the molar value.

Columns and labels:
[1] = target: T1, Peroxisome proliferator-activated receptor gamma (Homo sapiens, UniProt P37231)
T1 sequence (P37231 whole entry): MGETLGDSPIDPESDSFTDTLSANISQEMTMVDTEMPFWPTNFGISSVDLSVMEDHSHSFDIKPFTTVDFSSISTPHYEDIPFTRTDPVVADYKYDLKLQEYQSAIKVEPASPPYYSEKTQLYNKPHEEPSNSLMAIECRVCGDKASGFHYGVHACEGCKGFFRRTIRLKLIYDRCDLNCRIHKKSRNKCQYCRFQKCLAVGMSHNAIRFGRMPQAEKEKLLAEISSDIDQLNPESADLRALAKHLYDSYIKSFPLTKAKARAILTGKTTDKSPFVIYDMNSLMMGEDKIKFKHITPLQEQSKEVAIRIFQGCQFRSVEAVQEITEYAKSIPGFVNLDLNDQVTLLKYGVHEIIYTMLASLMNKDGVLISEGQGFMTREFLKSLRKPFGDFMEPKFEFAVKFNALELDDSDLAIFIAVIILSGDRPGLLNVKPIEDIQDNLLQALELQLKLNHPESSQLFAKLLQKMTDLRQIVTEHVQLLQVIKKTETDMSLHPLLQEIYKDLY
Description: Maximal reporter activity against human Peroxisome proliferator activated receptor gamma Gal4 chimeric in transiently transfected CV-1 cells by functional assay.

[2] = target: T2, Peroxisome proliferator-activated receptor alpha (Homo sapiens, UniProt Q07869); test: Maximal reporter activity against human Peroxisome proliferator activated receptor alpha Gal4 chimeric in transiently transfected CV-1 cells by functional assay.; assay type: cell-based
T2 sequence (Q07869 whole entry): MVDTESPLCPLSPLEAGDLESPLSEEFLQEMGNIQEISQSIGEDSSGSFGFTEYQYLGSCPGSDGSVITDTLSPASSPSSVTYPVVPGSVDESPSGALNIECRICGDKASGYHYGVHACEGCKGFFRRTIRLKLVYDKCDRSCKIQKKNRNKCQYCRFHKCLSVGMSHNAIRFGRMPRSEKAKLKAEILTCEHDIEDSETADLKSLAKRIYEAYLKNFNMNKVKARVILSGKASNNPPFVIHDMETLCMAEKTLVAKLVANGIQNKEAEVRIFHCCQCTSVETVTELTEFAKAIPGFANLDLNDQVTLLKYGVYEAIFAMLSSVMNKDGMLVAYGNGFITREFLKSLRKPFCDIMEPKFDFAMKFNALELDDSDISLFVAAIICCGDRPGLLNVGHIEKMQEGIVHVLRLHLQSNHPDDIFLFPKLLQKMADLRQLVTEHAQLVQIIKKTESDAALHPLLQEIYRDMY

[3] = target: T1, Peroxisome proliferator-activated receptor gamma; remark: listed apart in the source
Description: Binding affinity to human Peroxisome proliferator activated receptor gamma using scintillation proximity assay

[4] = test system: Rattus norvegicus; test: In vivo efficacy expressed as increase in HDL-cholesterol after at a dose of 10 mg/kg, oral, for 14 days in male rats; assay type: functional
[5] = target: T3, Peroxisome proliferator-activated receptor delta (Homo sapiens, UniProt Q03181); test: Binding affinity to bind to human Peroxisome proliferator activated receptor delta using scintillation proximity assay
T3 sequence (Q03181 whole entry): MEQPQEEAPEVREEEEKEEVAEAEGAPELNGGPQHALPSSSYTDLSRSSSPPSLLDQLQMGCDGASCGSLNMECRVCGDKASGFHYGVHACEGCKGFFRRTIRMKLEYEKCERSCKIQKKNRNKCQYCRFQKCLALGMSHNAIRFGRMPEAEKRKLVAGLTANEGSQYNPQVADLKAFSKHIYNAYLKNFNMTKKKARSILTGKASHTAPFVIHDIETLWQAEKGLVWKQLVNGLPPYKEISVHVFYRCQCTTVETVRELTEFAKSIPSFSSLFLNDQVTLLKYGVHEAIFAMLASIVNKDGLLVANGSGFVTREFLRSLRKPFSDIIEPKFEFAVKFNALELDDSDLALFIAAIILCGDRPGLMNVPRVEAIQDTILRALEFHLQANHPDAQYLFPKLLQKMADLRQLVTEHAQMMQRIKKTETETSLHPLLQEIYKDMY

[6] = test system: Rattus norvegicus; test: In vivo efficacy expressed as reduction in fasting serum triglycerides at a dose of 10 mg/kg, oral, for 14 days in male rats; assay type: functional
[7] = test system: Rattus norvegicus; test: In vivo efficacy expressed as reduction in fasting plasma glucose at a dose of 10 mg/kg, oral, for 14 days in male rats; assay type: functional
[8] = target: T3, Peroxisome proliferator-activated receptor delta; test: Concentration that gave 50% of maximal reporter activity against human Peroxisome proliferator activated receptor delta Gal4 chimeric in transiently transfected CV-1 cells by functional assay.; assay type: cell-based

Row | Structure (SMILES) | pEC50 [1] | pKi [3] | also measured
1 | Cc1oc(-c2ccccc2)nc1CCOc1ccc(C[C@@H](C(=O)O)N2CCOCC2)cc1 | 7.62 | 6.80 | pEC50 [2]: 5.16
2 | CN[C@@H](Cc1ccc(OCCc2nc(-c3ccccc3)oc2C)cc1)C(=O)O | 5.30 | 5.68 | –
3 | Cc1oc(-c2ccccc2)nc1CCOc1ccc(C[C@H](Nc2ncccn2)C(=O)O)cc1 | 6.23 | 6.55 | –
4 | Cc1oc(-c2ccccc2)nc1CCOc1ccc(C[C@@H](C(=O)O)n2cccc2)cc1 | – | – | Increase [4]: 31%; pKi [5]: 5.60; Reduction [6]: 24%; Reduction [7]: 40%; pEC50 [8]: 5.42
5 | Cc1oc(-c2ccccc2)nc1CCOc1ccc(C[C@H](NS(C)(=O)=O)C(=O)O)cc1 | 5.59 | 6.21 | –
6 | CC(=O)N[C@@H](Cc1ccc(OCCc2nc(-c3ccccc3)oc2C)cc1)C(=O)O | 5.46 | 5.59 | –
7 | Cc1oc(-c2ccccc2)nc1CCOc1ccc(C[C@@H](C(=O)O)n2c(C)ccc2C)cc1 | 6.15 | 6.01 | –
8 | Cc1oc(-c2ccccc2)nc1CCOc1ccc(C[C@@H](C(=O)O)N(C)C)cc1 | 6.39 | 6.07 | –
9 | CCCN[C@@H](Cc1ccc(OCCc2nc(-c3ccccc3)oc2C)cc1)C(=O)O | 6.62 | 7.28 | –
10 | Cc1oc(-c2ccccc2)nc1CCOc1ccc(C[C@@H](C(=O)O)N2CCCC2)cc1 | 6.41 | 6.44 | –
11 | Cc1oc(-c2ccccc2)nc1CCOc1ccc(C[C@@H](C(=O)O)N2CCCCC2)cc1 | 6.86 | 6.32 | –
12 | Cc1oc(-c2ccccc2)nc1CCOc1ccc(C[C@H](Nc2ccccc2C(=O)c2ccccc2)C(=O)O)cc1 [FARGLITAZAR] | – | – | pKi [5]: 5.92
